Structures are written as SMILES.

For one assay, the target named is T1, USP28 (Homo sapiens, UniProt Q96RU2).
T1 construct: purchased R&D Systems China Co., Ltd. (R&D Systems)
T1 sequence (Q96RU2 1-1077): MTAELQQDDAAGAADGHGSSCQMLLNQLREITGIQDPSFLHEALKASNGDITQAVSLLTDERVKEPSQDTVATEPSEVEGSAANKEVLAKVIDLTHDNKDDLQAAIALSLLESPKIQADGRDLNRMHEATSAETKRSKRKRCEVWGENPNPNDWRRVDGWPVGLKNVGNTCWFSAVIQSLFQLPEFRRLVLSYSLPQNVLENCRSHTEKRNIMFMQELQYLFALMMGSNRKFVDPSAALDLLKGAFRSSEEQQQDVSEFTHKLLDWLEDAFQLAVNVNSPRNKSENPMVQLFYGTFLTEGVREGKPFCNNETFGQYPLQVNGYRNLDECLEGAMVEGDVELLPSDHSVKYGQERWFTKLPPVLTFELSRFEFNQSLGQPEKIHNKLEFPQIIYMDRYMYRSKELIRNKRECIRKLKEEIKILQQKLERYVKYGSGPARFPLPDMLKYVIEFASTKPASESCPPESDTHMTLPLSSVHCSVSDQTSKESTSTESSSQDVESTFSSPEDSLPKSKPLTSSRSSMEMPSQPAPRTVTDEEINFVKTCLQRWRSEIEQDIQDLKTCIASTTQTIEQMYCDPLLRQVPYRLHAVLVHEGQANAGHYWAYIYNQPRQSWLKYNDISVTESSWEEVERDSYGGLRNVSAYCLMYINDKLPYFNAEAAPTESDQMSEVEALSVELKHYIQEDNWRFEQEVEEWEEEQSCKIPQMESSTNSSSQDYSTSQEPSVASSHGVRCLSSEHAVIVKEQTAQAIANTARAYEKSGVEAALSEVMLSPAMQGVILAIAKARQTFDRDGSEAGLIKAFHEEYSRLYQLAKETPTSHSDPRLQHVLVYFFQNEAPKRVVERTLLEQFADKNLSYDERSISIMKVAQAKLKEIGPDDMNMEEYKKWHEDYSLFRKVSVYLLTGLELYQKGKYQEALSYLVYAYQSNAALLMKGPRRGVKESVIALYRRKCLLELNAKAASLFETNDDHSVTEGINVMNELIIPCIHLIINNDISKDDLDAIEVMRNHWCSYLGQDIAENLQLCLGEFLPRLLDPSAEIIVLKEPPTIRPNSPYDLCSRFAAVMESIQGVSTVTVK
Briefly: USP28 activity by the ubiquitin-rhodamine 110 (Ub-Rh110) method. Format: biochemical. Conditions: purified USP28 4 nM, Ub-Rh110 125 nM, 30 min preincubation; read-out: Inhibitory activity (IC50) USP28. How it is done: USP28 activity was determined by the ubiquitin-rhodamine 110 (Ub-Rh110) method.
Purified USP28 and a substrate Ub-Rh110 used for determining deubiquitinase activity were purchased from R&D Systems China Co., Ltd. (R&D Systems). First, test compounds were each dissolved in DMSO to prepare a 10 mM stock solution, and then the stock solution was diluted to the desired concentration (with a DMSO content of 0.5%) with a buffer solution [containing 20 mM Tris-HCl (pH 8.0), 2 mM CaCl2), 3 mM BME, 0.01% Prionex, and 0.01% Triton X-100]. The prepared test compound solutions at different concentrations were mixed uniformly with USP28 (final concentration: 4 nM) in a 96-well plate, and the mixture was incubated at r. t. for 30 min before the addition of Ub-Rh110 to 125 nM. The final volume of the whole reaction system was 20 μL. The released fluorescence (excitation wavelength: 485 nm, emission wavelength: 535 nm) was detected immediately on a microplate reader after the addition of the substrate. A blank control group (DMSO instead of test compound) and a substrate group (no USP28 added) were set simultaneously. The inhibitory rates of the test compounds for USP28 were calculated according to the following formula:
Inhibition %=(1−[(fluorescence valuetest compound−fluorescence valuesubstrate)/(fluorescence valuecontrol−fluorescence valuesubstrate])×100%
According to the inhibitory rates of the test compounds for USP28 under different concentrations, IC50 values were calculated.
(§1) With reference to Example 2 and Example 3, USP28 and USP25 inhibitor activity tests were performed on representative example compounds of the present disclosure and the following comparative compound structures.

The target in a further assay is T2, USP25 (Homo sapiens, UniProt Q9UHP3).
T2 construct: purchased R&D Systems
T2 sequence (Q9UHP3 1-1055): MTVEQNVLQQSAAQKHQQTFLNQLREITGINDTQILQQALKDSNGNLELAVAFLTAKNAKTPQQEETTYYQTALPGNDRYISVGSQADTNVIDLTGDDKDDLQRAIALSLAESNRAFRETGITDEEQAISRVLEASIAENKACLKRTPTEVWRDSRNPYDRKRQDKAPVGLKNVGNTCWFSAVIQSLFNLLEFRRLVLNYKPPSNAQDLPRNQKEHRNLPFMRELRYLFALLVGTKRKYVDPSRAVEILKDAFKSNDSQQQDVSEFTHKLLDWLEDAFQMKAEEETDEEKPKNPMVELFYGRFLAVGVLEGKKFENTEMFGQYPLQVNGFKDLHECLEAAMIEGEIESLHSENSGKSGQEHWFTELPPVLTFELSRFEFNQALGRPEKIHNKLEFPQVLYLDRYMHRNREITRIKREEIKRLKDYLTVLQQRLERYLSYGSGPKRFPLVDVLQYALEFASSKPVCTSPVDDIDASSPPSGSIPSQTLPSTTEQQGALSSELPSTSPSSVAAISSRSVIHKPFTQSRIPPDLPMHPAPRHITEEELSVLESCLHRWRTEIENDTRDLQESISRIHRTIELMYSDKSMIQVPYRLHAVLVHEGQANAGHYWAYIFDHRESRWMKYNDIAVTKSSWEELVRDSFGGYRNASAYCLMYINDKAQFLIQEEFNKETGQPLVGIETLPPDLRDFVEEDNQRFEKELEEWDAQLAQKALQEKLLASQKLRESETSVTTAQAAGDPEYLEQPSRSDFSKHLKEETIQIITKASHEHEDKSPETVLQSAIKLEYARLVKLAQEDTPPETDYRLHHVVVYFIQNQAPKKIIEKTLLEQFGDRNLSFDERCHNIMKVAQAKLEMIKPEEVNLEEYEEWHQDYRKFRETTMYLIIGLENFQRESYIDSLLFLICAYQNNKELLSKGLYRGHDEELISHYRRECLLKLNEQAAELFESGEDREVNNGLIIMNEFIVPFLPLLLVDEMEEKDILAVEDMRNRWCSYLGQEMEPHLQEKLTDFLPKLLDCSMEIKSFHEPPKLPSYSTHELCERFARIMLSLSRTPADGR
In words: USP25 activity by the Ub-Rh110 method. Format: biochemical. The note with it: purified USP25 15 nM, Ub-Rh110 125 nM; read-out: Inhibitory activity (IC50) USP25. On the procedure: USP25 activity was determined by the Ub-Rh110 method.
Purified USP25 was purchased from R&D Systems. The experimental procedures were the same as those in Example 2. The final concentration of USP25 was 15 nM, the final concentration of the substrate Ub-Rh110 was 125 nM, and the final volume of the whole reaction system was 20 μL.
as §1

On to `CCn1ccc2c(Cl)c(C(=O)NCCc3ccc(N4CC5CCC(C4)N5)cc3)cnc21` [Compound I-01, N-4-(3,8-diazabicyclo[3.2.1]octan-3-yl)phenethyl-4-chloro-1-ethyl-1H-pyrrolo[2,3-b]pyridine-5-carboxamide], for which the 50% inhibitory concentration (IC50) on USP28 and on USP25 was 1000 to 10000 nM each time.

Consider `CCn1ccc2c(NC)c(C(=O)NCCc3ccc(N4CC5CCC(C4)N5)cc3)cnc21` [Compound I-02, N-4-(3,8-diazabicyclo[3.2.1]octan-3-yl)phenethyl-1-ethyl-4-methylamino-1H-pyrrolo[2,3-b]pyridine-5-carboxamide], for which the half-inhibitory concentration (IC50) at USP28 and at USP25 was less than 50 nM each time. Turning to `CCNc1c(C(=O)NCCc2ccc(N3CC4CCC(C3)N4)cc2)cnc2c1ccn2CC` [Compound I-03], the half-inhibitory concentration (IC50) on USP28 and on USP25 was 500 to 1000 nM each time. `CCCNc1c(C(=O)NCCc2ccc(N3CC4CCC(C3)N4)cc2)cnc2c1ccn2CC` [Compound I-04]: the IC50 on USP28 is 1000 to 10000 nM; at USP25, greater than 10000 nM. For `CCn1ccc2c(NC)c(C(=O)NCCc3ccc(N4CC5CCC(C4)N5)cc3F)cnc21` [Compound I-05], the half-maximal inhibitory concentration (IC50) at USP28 was less than 50 nM; at USP25, 50 to 500 nM.

As for `CCn1ccc2c(NC)c(C(=O)NCC(C)(C)c3ccc(N4CC5CCC(C4)N5)cc3F)cnc21` [Compound I-06], the half-maximal inhibitory concentration (IC50) on USP28 is 50 to 500 nM; on USP25, 500 to 1000 nM. On the same counts, the results for `CCn1ccc2c(NC)c(C(=O)NCCc3ccc(N4CCNCC4)cc3)cnc21` [Compound I-07] are less than 50 nM and less than 50 nM. With `CCn1ccc2c(NC)c(C(=O)NCCc3c[nH]c4ccccc34)cnc21` [Compound I-08], the 50% inhibitory concentration (IC50) at USP28 is less than 50 nM; on USP25, 50 to 500 nM. On the same counts, the results for `CCn1ccc2c(NC)c(C(=O)NCCc3ccc(OC)c(OC)c3)cnc21` [Compound I-09] are 50 to 500 nM and 50 to 500 nM. Regarding `CCn1ccc2c(NC)c(C(=O)NCCc3ccc(Br)cc3)cnc21` [Compound I-10], the 50% inhibitory concentration (IC50) at USP25 was greater than 10000 nM.

`CNc1c(C(=O)NCCc2ccc(N3CC4CCC(C3)N4)cc2)cnc2[nH]ccc12` [Compound I-11]: the results for the half-inhibitory concentration (IC50) on USP28 and at USP25 were 50 to 500 nM and 500 to 1000 nM, respectively. Take `CNc1c(C(=O)NCCc2ccc(N3CC4CCC(C3)N4)cc2)cnc2c1ccn2C` [Compound I-12]: the concentration for half-maximal inhibition (IC50) on USP28 is less than 50 nM; on USP25, 50 to 500 nM.

In the case of `CCCn1ccc2c(NC)c(C(=O)NCCc3ccc(N4CC5CCC(C4)N5)cc3)cnc21` [Compound I-13], the IC50 on USP28 and at USP25 was less than 50 nM in each case. As to `CCCCn1ccc2c(NC)c(C(=O)NCCc3ccc(N4CC5CCC(C4)N5)cc3)cnc21` [Compound I-14], the IC50 on USP28 and at USP25 was less than 50 nM in each case.

As to `CNc1c(C(=O)NCCc2ccc(N3CC4CCC(C3)N4)cc2)cnc2c1ccn2CC(F)(F)F` [Compound I-15], the IC50 on USP28 and at USP25 was less than 50 nM throughout.

`CNc1c(C(=O)NCCc2ccc(N3CCNCC3)cc2)cnc2c1ccn2CC(F)(F)F` [Compound I-16]: the IC50 at USP28 and on USP25 was less than 50 nM each time. On to `CCn1ccc2c(NC)c(C(=O)NCCc3ccc(C4CC5CCC(C4)N5)cc3)cnc21` (stereo not drawn) [Compound I-17], for which the concentration for half-maximal inhibition (IC50) on USP28 was less than 50 nM; on USP25 it was 50 to 500 nM. Consider `CCn1ccc2c(NC)c(C(=O)NCCc3ccc(C4C5CCC4CNC5)cc3)cnc21` (stereo not drawn) [Compound I-18], for which the IC50 on USP25 was 50 to 500 nM. Consider `CCn1ccc2c(NC)c(C(=O)NCCc3ccc(N4C5CCC4CNC5)cc3)cnc21` [Compound I-19], for which the values for the IC50 at USP28 and on USP25 were less than 50 nM and 50 to 500 nM, respectively. For `CCn1ccc2c(NC)c(C(=O)NCCc3ccc(C4CCNCC4)cc3)cnc21` [Compound I-20], in that order: less than 50 nM and 50 to 500 nM. Consider `CCn1ccc2c(NC)c(C(=O)NC[C@H](C)c3ccc(N4CC5CCC(C4)N5)cc3)cnc21` [Compound I-21], for which the IC50 lay in the range of 50 to 500 nM at USP28 and 500 to 1000 nM on USP25. On the same counts, the results for `CCn1ccc2c(NC)c(C(=O)NC[C@@H](C)c3ccc(N4CC5CCC(C4)N5)cc3)cnc21` [Compound I-22] are 50 to 500 nM and 500 to 1000 nM. On to `CCn1ccc2c(NC)c(C(=O)N[C@H]3COc4cc(N5CC6CCC(C5)N6)ccc4C3)cnc21` [Compound I-23], for which the IC50 on USP28 and at USP25 was less than 50 nM in each case. On to `CCn1ccc2c(NC)c(C(=O)N[C@@H]3COc4cc(N5CC6CCC(C5)N6)ccc4C3)cnc21` [Compound I-24], for which the IC50 on USP28 was in the range of 50 to 500 nM; on USP25, 500 to 1000 nM. In the case of `CCn1ccc2c(NC)c(C(=O)N[C@H]3CCc4cc(N5CC6CCC(C5)N6)ccc4C3)cnc21` [Compound I-25], the concentration for half-maximal inhibition (IC50) at USP28 was less than 50 nM; at USP25, 50 to 500 nM.

Consider `CCn1ccc2c(NC)c(C(=O)N[C@@H]3CCc4cc(N5CC6CCC(C5)N6)ccc4C3)cnc21` [Compound I-26], for which the IC50 lay within 50 to 500 nM on USP28 and 500 to 1000 nM at USP25. In the case of `CCn1ccc2c(NC)c(C(=O)NCCc3ccc(N4CC5CCC(C4)N5)cc3)nnc21` [Compound I-27], the IC50 on USP28 and on USP25 was less than 50 nM each time.

As for `CCn1ccc2c(NC)c(C(=O)NCCc3ccc(N4CCNCC4)cc3)nnc21` [Compound I-28], the half-inhibitory concentration (IC50) on USP28 and on USP25 was less than 50 nM in each case.

Usually IC50 stands for the midpoint of a concentration-inhibition curve.

The values are drawn from US20250289829A1, “DEUBIQUITINASE INHIBITOR AND USE THEREOF” (CHASER THERAPEUTICS, INC., priority 2022, published 2025).
